From patent publication US8802695B2, “Apoptosis signal-regulating kinase 1 inhibitors” (Takeda Pharmaceutical Company Limited, priority 2010, dated 2014) come the findings set out here.

The structures appear in SMILES notation.

Series [1] concerns the target T1, ASK1 (Homo sapiens (Human), UniProt Q99683). The series can be described thus: Homogeneous Time-Resolved Fluorescence (HTRF) assay for inhibitory effect against ASK1 (Example C; KinEASE STK S3 kit). The series is classed as biochemical. Particulars: 25 nM ASK1, 100 μM ATP, read-out: Enzyme Activity C IC50. The source says:
(§1) The inhibitory effect of the compound of the invention on ASK1 may be evaluated by evaluating the phosphorylating activity of the enzyme on a known substrate with or without the presence of the test compound. Example B provides such an assay where myelin basic protein (Wako) is used as substrate and detection is by scintillation counting. It should be understood other substrates and detection mechanism may be used. A commercially available a kit, Cisbio's HTRF® KinEASE™ STK kit, has shown to be useful for evaluating ASK1 activity. The assay uses an anti-phosphoseric specific, Eu^3+-Cryptate labeled antibody to mark the phosphorylated product of ASK1 on a biotinylated kinase substrate, and detection is by time resolved fluorescence using XL665 labeled streptavidin. The fluorescence intensity is proportional to the amount of product formation. Example C provides the assay protocol.
Homogeneous Time-Resolved Fluorescence (HTRF) Assay for Measuring the Inhibitory Effect of Exemplified Compounds of the Invention Against ASK1
Recombinant human ASK1 is purchased from Millipore (Cat #14-606). The enzymatic assay of ASK1 is set up by using HTRF® KinEASE™ STK S3 kit, the Universal Assay for Serine/Threonine Kinases kit from CisBio.
The inhibitory properties of compounds to ASK1 may be determined using a white 384-well-plate format under the following reaction conditions: 25 nM ASK1, 1 μM CisBio STK S3-biotion peptide, 100 μM ATP, and 1%-2% DMSO in kinase assay buffer of 50 mM HEPES, pH 7.3, 10 mM NaCl, 10 mM MgCl2, 0.01% Brij35, 0.2 mM EDTA, and 1 mM DTT. Reaction product is determined quantitatively by HTRF after the addition of detection reagent SA-XL665 and STK-antibody-cryptate.
The assay reaction may be initiated as follows: 2 μl of the mixture of 3 μM CisBio STK S3-biotion peptide and 300 μM ATP with 2 μl of test compound (2 fold serial dilutions for 11 data points for each inhibitor) containing 3%-6% DMSO are added to each well of the plate, followed by the addition of 2 μL of 75 nM ASK1 to initiate the reaction (final enzyme concentration was 25 nM for ASK1). The reaction mixture may then be incubated at room temperature for 1 hour, and quenched and developed by the addition of 6 μL of 100-fold diluted STK-antibody-Cryptate and 250 nM SA-XL665 in Cisbio HTRF detection buffer (50 mM HEPES, pH7.0, 0.1% BSA, 0.8 M KF, and 20 mM EDTA). The fluorescence intensity is measured at 620 nm (Cryptate) and 665 nm (XL665) after a 1-2 hour incubation at room temperature. A ratio is calculated (665/620) for each well and is fitted to the standard IC50 curve to determine inhibition constants (IC50).
Target sequence in this assay (Q99683 649-946): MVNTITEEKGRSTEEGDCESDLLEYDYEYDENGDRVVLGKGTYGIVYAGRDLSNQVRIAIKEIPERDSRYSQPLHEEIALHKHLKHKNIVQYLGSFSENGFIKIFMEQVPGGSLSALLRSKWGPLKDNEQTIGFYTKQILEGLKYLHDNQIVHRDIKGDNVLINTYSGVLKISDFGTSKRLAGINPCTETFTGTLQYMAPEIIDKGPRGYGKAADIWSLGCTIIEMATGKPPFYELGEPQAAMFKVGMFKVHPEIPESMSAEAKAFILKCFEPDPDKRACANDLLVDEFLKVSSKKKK
On the technique in general: Time-resolved FRET reads energy transfer from a long-lived donor to a nearby acceptor.

Series [2] concerns the target T1, ASK1. Kind of series: Scintillation assay for inhibitory effect against ASK1 (Example B; myelin basic protein substrate, [γ-32P]ATP). The series is classed as biochemical. To be noted: 2.5 μM ATP solution, read-out: Enzyme Activity B IC50.
From the text: as §1
Target sequence in this assay (Q99683 650-1374): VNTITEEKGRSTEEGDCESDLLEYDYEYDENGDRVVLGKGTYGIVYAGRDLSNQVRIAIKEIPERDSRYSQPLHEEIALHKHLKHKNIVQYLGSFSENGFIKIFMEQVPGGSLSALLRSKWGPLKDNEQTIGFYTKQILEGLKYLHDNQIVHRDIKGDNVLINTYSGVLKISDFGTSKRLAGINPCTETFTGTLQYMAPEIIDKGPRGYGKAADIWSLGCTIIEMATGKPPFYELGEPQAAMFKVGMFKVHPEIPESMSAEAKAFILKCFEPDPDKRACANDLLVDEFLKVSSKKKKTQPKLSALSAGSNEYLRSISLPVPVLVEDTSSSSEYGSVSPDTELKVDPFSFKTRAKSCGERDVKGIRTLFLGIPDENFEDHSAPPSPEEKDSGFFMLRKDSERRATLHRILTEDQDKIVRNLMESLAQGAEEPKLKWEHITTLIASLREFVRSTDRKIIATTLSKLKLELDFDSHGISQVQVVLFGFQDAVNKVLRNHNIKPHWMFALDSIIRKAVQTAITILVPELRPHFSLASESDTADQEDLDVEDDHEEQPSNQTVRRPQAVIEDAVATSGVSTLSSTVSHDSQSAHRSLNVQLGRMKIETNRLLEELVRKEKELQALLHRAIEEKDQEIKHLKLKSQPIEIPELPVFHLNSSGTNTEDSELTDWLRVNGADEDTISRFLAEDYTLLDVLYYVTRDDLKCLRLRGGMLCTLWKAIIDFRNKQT
Cloning of cDNA encoding human ASK1 was conducted by PCR using primers, 5′-[…] […]-3′ (SEQ ID NO: 1) and 5′-AAAGCGGCCGCTCAA […]-3′ (SEQ ID NO: 2), from human heart cDNA library (Becton, Dickinson and Company). The PCR product was subjected to agarose gel (1%) electrophoresis, a 2.2 kb DNA fragment containing an ASK1 gene was recovered from the gel, and then digested with restriction enzymes, NotI and SalI, and inserted into a plasmid pFASTBAC1 (Invitrogen) to prepare a plasmid pFB-ASK1. The insert was verified by sequencing. Recombinant baculovirus was prepared according to the procedure of the Bac-to-Bac baculovirus expression system (Invitrogen).
Sf-21 cells were seeded to achieve 1×10^6 cells/mL in 100 mL of Sf-900 II SFM medium (Invitrogen) which contains 10% fetal calf serum and then cultured at 27° C. for 24 hrs. To express ASK1 in cells, 0.15 mL of the recombinant baculovirus virus stock was added to cells, and the then cultured for 60 hrs. The cells were separated from the culture solution by centrifugation at 3000 rpm for 10 min and washed once with PBS. The cells were suspended in 10 mL of lysis buffer (25 mM HEPES (pH 7.5), 1% Triton X, 130 mM NaCl, 1 mM EDTA, 1 mM DTT, 25 mM (3-glycerophosphate, Protease inhibitor complete (Roche), 1 mM sodium orthovanadate) and ruptured by four times of treatment with a homogenizer (POLYTRON) at 20000 rpm for 30 seconds. Active ASK1 protein was purified from a supernatant obtained by centrifugal separation at 40000 rpm for 45 min using anti-FLAG M2 Affinity Gel (Sigma).
Scintillation Assay for Measuring the Inhibitory Effect of Exemplified Compounds of the Invention Against ASK1
The test compounds (2.5 μL) dissolved in DMSO were added to wells containing 37.5 μL of the reaction solution (25 mM HEPES (pH 7.5), 10 mM magnesium acetate, 1 mM DTT) including 30 ng of active ASK1 protein and 1 μg of myelin basic protein (Wako), and incubated at room temperature for 5 min. To start the reaction, 10 μL of ATP solution (2.5 μM ATP, 0.1 μCi [γ-^32P]ATP) was added to wells. After incubating at room temperature for 30 min, the reaction was terminated by adding 50 μL of 20% TCA solution. The reaction solution was incubated at 4° C. for 30 min and an acid-insoluble fraction was transferred onto a GF/C filter (Packard) with Cell Harvester (Packard), and washed with 250 mM phosphoric acid. After drying at 45° C. for 60 min., 40 μL of Microscint 0 (Packard) was added and the radioactivity was measured with TopCount (Packard). The concentrations (IC50 value) of the test compounds necessary for 50% inhibition of kinase activity were calculated by PRISM 3.0 (Graphpad Software).

Turning to `Cn1cc(Cl)c2cnc(NC(=O)c3ccc([C@@](C)(O)CO)cc3)cc21` [Compound 31, (R)—N-(3-chloro-1-methyl-1H-pyrrolo[3,2-c]pyridin-6-yl)-4-(1,2-dihydroxypropan-2-yl)benzamide], the melting point lay in the range of 210 to 212 °C. In series [1], the concentration for half-maximal inhibition (IC50) was 19 nM.
The compound `CCn1cc(Cl)c2cnc(NC(=O)c3ccc([C@@](C)(O)CO)cc3)cc21` [Compound 14, (R)—N-(3-chloro-1-ethyl-1H-pyrrolo[3,2-c]pyridin-6-yl)-4-(1,2-dihydroxypropan-2-yl)benzamide] displayed a melting point of 224.4 to 225.1 °C. For the same compound, in series [2], the IC50 is 6 nM. In addition, the IC50 in series [1] was found to be 16 nM.
In turn, `Cn1cc(Cl)c2cnc(NC(=O)c3ccc([C@](C)(O)CO)cc3)cc21` [Compound 29, (S)—N-(3-chloro-1-methyl-1H-pyrrolo[3,2-c]pyridin-6-yl)-4-(1,2-dihydroxypropan-2-yl)benzamide] returned a melting point of 210 to 212 °C. In addition, in series [1], the IC50 came to 38 nM.
Compound `CCn1cc(Cl)c2cnc(NC(=O)c3ccc([C@](C)(O)CO)cc3)cc21` [Compound 26, (S)—N-(3-chloro-1-ethyl-1H-pyrrolo[3,2-c]pyridin-6-yl)-4-(1,2-dihydroxypropan-2-yl)benzamide] registered a melting point of 223 to 223.9 °C. Also, the IC50 in series [2] was 9 nM. For the same compound, in series [1], the IC50 was 12 nM.
In the case of `Cn1c(Cl)c(Cl)c2cnc(NC(=O)c3ccc([C@](C)(O)CO)cc3)cc21` [Compound 30, (S)—N-(2,3-dichloro-1-methyl-1H-pyrrolo[3,2-c]pyridin-6-yl)-4-(1,2-dihydroxypropan-2-yl)benzamide], the melting point lay within 205 to 208 °C.

As a reminder, the IC50 is the concentration needed to halve the response being measured. In general, melting point refers to the temperature of the solid-liquid transition.
